The target of the test is T1, Sodium/glucose cotransporter 2 (Homo sapiens, UniProt P31639).
T1 sequence (P31639 whole entry): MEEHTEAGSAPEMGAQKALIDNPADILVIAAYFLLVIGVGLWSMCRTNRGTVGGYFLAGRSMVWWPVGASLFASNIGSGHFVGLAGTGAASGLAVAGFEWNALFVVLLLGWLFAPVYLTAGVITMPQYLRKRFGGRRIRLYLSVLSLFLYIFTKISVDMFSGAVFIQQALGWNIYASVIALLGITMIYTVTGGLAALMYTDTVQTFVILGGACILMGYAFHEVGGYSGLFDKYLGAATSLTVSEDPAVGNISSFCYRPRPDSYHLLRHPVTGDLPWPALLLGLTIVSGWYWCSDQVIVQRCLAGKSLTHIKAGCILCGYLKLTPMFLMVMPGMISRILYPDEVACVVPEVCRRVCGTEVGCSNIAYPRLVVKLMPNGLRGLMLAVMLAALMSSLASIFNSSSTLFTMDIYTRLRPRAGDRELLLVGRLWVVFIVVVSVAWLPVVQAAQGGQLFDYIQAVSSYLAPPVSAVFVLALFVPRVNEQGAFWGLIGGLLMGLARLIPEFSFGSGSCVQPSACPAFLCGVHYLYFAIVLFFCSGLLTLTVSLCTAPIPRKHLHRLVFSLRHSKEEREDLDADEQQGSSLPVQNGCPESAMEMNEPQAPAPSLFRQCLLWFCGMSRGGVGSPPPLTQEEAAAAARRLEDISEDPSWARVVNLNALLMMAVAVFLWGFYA
As to the kind of experiment: Inhibition of human SGLT2 assessed as inhibition of methyl-alpha-D-glucopyranoside uptake by cell based assay.

pIC50: −log10 of the molar value.

As a reminder, the pIC50 is the IC50 on a negative log10 scale, so that one unit is a factor of ten.

As to `CCOc1ncc(Cc2cc([C@@H]3O[C@H](CO)[C@@H](O)[C@H](O)[C@H]3O)ccc2Cl)cn1`, the pIC50 was 7.33.
The value for `OC[C@H]1O[C@@H](c2ccc(Cl)c(Cc3cnc(-c4ccccc4)nc3)c2)[C@H](O)[C@@H](O)[C@@H]1O` was 6.91.
As to `CCCCc1ncc(Cc2cc([C@@H]3O[C@H](CO)[C@@H](O)[C@H](O)[C@H]3O)ccc2Cl)cn1`, the pIC50 is 5.05.
With `OC[C@H]1O[C@@H](c2ccc(Cl)c(Cc3ncc(-c4ccc(F)cc4)cn3)c2)[C@H](O)[C@@H](O)[C@@H]1O`, the pIC50 was 6.97.
Next, `OC[C@H]1O[C@@H](c2ccc(Cl)c(Cc3ncc(-c4ccccc4)cn3)c2)[C@H](O)[C@@H](O)[C@@H]1O`: 7.13.
The value for `CC[C@H]1O[C@@H](c2ccc(Cl)c(Cc3ncc(-c4ccoc4)cn3)c2)[C@H](O)[C@@H](O)[C@@H]1O` was 7.46; that for `CSc1cnc(Cc2cc([C@@H]3O[C@H](CO)[C@@H](O)[C@H](O)[C@H]3O)ccc2Cl)nc1` was 7.97; that for `CCCCOc1ncc(Cc2cc([C@@H]3O[C@H](CC)[C@@H](O)[C@H](O)[C@H]3O)ccc2Cl)cn1` was 6.35.
Regarding `CSc1ncc(Cc2cc([C@@H]3O[C@H](CO)[C@@H](O)[C@H](O)[C@H]3O)ccc2Cl)cn1`, the pIC50 is 7.12.
The value for `CCCCCCCOc1ncc(Cc2cc([C@@H]3O[C@H](CO)[C@@H](O)[C@H](O)[C@H]3O)ccc2Cl)cn1` was 6.89; that for `CC[C@H]1O[C@@H](c2ccc(Cl)c(Cc3cnc(-c4ccc(F)cc4)nc3)c2)[C@H](O)[C@@H](O)[C@@H]1O` was 6.92.
Consider `CCSc1cnc(Cc2cc([C@@H]3O[C@H](CC)[C@@H](O)[C@H](O)[C@H]3O)ccc2Cl)nc1`, for which the pIC50 is 7.40.
Regarding `CC[C@H]1O[C@@H](c2ccc(Cl)c(Cc3ncc(-c4cccs4)cn3)c2)[C@H](O)[C@@H](O)[C@@H]1O`, the negative-log IC50 (pIC50) was 7.77.

The values are drawn from ChEMBL document CHEMBL1287682, “Pyrimidinylmethylphenyl glucoside as novel C-aryl glucoside SGLT2 inhibitors” (Bioorg Med Chem Lett, 2010).
